The record followed here is article PMC12749626, “Expediting hit-to-lead progression in drug discovery through reaction prediction and multi-dimensional optimization” (Nature Communications, 2025).

What all share (details): 10 uM; n=2
Experiment [1] has as its target ADENOSINE A1 REC. (Homo sapiens, UniProt P30542).
Experiment [2] deals with HISTAMINE H3 REC. (Homo sapiens, UniProt Q9Y5N1).
Experiment [3] deals with ESTROGEN REC. α (Homo sapiens, UniProt P03372).
For experiment [4], the target named is ABL1 (Homo sapiens, UniProt P00519).
Chain of ABL1 (P00519 whole entry): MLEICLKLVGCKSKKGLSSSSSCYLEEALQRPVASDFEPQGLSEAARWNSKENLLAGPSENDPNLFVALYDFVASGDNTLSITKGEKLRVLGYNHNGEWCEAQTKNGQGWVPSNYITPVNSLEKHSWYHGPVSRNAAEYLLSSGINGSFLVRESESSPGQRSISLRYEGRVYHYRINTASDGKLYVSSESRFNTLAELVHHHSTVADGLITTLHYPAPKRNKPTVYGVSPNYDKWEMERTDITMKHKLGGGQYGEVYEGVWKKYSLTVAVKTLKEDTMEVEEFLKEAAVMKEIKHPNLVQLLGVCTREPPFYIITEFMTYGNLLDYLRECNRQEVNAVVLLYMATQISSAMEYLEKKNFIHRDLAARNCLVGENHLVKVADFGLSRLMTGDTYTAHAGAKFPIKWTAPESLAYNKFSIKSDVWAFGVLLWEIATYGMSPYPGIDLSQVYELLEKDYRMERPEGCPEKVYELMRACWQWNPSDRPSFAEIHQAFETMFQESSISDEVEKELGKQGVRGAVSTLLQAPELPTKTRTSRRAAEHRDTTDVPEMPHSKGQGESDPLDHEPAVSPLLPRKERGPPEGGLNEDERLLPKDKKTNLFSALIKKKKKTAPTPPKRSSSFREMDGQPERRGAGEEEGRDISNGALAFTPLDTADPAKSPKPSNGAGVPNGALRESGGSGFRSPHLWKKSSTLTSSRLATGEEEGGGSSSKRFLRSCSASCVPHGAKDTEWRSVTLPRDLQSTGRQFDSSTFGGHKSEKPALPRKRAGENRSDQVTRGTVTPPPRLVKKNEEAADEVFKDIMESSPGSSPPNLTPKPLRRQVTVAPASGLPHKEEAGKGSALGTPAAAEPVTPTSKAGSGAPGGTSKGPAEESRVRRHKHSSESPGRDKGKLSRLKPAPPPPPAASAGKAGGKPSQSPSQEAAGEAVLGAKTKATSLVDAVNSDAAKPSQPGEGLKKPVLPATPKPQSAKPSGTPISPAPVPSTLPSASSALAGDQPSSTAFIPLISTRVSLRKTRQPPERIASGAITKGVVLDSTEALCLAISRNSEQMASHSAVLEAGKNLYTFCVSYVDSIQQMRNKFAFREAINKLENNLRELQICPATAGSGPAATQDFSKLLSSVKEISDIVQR

Chain of HISTAMINE H3 REC. (Q9Y5N1 whole entry): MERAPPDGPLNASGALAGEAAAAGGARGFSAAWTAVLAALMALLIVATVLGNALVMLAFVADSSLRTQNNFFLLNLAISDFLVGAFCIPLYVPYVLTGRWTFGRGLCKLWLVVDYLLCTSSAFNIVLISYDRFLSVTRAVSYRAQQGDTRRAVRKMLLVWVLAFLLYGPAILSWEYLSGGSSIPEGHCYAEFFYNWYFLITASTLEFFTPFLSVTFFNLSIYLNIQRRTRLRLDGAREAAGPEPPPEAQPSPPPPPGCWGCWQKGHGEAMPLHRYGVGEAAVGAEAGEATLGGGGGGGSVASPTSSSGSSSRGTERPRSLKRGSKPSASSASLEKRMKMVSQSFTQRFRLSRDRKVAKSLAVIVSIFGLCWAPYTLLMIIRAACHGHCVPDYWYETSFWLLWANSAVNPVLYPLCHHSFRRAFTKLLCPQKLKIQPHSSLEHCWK
Chain of ESTROGEN REC. α (P03372 whole entry): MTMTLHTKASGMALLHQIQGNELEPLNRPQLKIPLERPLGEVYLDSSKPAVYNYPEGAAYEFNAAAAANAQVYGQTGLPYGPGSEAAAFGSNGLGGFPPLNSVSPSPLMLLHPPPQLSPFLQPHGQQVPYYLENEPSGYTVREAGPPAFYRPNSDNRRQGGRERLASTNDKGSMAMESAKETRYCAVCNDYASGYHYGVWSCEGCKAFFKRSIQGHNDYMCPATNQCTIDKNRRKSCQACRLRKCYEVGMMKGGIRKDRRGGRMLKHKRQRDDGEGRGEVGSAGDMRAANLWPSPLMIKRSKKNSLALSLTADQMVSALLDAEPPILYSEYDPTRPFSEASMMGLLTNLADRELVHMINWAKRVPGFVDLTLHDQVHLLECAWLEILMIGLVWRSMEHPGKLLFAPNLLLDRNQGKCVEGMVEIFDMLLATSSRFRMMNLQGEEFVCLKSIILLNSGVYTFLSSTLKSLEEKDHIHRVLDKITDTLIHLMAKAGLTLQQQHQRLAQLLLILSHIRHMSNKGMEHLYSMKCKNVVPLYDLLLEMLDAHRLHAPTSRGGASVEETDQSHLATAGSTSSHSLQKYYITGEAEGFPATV
Chain of ADENOSINE A1 REC. (P30542 whole entry): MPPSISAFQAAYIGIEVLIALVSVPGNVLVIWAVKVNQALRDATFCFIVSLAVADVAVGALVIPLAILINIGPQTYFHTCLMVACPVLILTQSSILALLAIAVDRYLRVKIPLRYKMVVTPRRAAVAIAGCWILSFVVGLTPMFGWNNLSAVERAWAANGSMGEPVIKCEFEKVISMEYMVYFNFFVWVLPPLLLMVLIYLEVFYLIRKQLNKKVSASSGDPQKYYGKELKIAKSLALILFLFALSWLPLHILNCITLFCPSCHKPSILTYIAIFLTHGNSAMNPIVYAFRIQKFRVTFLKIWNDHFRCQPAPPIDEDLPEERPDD

Regarding `O=C(c1ccc2nc(-c3cnccc3C3(C4CCC4)CC3)oc2c1)N1CCN(c2nc3nc(Cl)ccc3o2)CC1` [Compound 27], in experiment [1], the “ADENOSINE A1 REC. percent activity or inhibition compared to the assay reference” value was determined as 13%. Also, the “HISTAMINE H3 REC. percent activity or inhibition compared to the assay reference” value in experiment [2] is 15%. The “ESTROGEN REC. α percent activity or inhibition compared to the assay reference” value in experiment [3] is reported as -20%. Further, in experiment [4], the “ABL1 percent activity or inhibition compared to the assay reference” value was -3%.
